Source: ChEMBL document CHEMBL5380812, “Structural Dynamics-Driven Discovery of Anticancer and Antimetastatic Effects of Diltiazem and Glibenclamide Targeting Urokinase Receptor” (J Med Chem, 2023)
Active and inactive are the calls of the source. The calls are words filed in the database; no cut-off is given here.

Experiments:
[1] = tested on: Urokinase plasminogen activator surface receptor (Homo sapiens), Q03405 [UNDEFINED MUTATION]; conditions: dose 100.0 µM
Description: Binding affinity to uPAR H47C/N259C (unknown origin) mutant assessed as response unit at 100 uM by surface plasmon resonance (SPR) analysis relative to control

Caco-2 = experiment: Antiinvasive activity against uPAR-negative human Caco-2 cells assessed as inhibition of invasive property at upto 100 uM incubated for 24 hrs by Crystal violet staining based - Transwell assay; assay type: functional, cell-based
CT26 [2] = experiment: In vivo antitumor activity against mouse CT26 cells subcutaneously homografted in Balb/c mouse model assessed as tumor weight at 100 mg/kg, po every two days for 14 days relative to control; assay type: functional; conditions: CT26, 336 h, time 14 day
PC-3 [3] = experiment: Cytotoxicity against human PC-3 cells assessed as survival rate without matrigel at upto 100 uM; assay type: toxicity, cell-based; conditions: pc-3, 100 µM
CT26 [4] = experiment: In vivo antimetastatic activity against mouse CT-26-muPAR-mCherry cells intravenously homografted in Balb/c mouse lung metastatic model assessed as suppression of metastases of cancer cells around vessels at 100 mg/kg, po every two days for 15 days by histopathological analysis; assay type: functional, organism-based; conditions: time 15.0 day
PC-3 [5] = experiment: Antiinvasive activity against human PC-3 cells expressing high uPAR assessed as inhibition of invasive property incubated for 24 hrs by Crystal violet staining based - Transwell assay; assay type: functional, cell-based; conditions: dose 0-100 µM
HUVEC = experiment: Antiangiogenic activity against HUVEC cells assessed as inhibition of formation of capillary-like polygons/fork-like branches in serum free medium at 100 uM; assay type: functional, cell-based; conditions: Homo sapiens
CT26 [6] = experiment: In vivo antimetastatic activity against mouse CT26-muPAR-mCherry cells intravenously homografted in Balb/c mouse lung metastatic model assessed as suppression of mCherry fluorescence in lung at 100 mg/kg, po every two days for 15 days relative to control; assay type: functional; conditions: time 15 day
[7] = Toxicity in Balb/c mouse homografted with mouse CT26 cells assessed as body weight at 100 mg/kg, po every two days for 14 days; assay type: organism-based; conditions: in vivo, 336 h, time 14 day
[8] = Inhibition of human recombinant […]/uPAR (unknown origin) interaction measured after 2 hrs by ELISA
MCF7 [9] = experiment: Antiinvasive activity against short hairpin RNA sequence of uPA containing vector transfected human MCF7-shuPA cells assessed as suppression of invasive property at upto 100 uM incubated for 24 hrs by Crystal violet staining based - Transwell assay; assay type: functional, cell-based
CT26 [10] = experiment: Antiinvasive activity against mouse CT26-muPAR-mCherry cells assessed as suppression of invasive property incubated for 24 hrs by Crystal violet staining based - Transwell assay; assay type: functional, cell-based; conditions: dose 0-100 µM
[11] = Toxicity in Balb/c mouse homografted with mouse CT-26-muPAR-mCherry cells assessed as vascular hyperemia at 100 mg/kg, po every two days for 15 days; assay type: organism-based; conditions: in vivo, 360 h, time 15 day
CT26 [12] = experiment: Antiinvasive activity against mouse CT26 cells assessed as suppression of invasive property incubated for 24 hrs by Crystal violet staining based - Transwell assay; assay type: functional, cell-based; conditions: dose 0-100 µM
HEK-293T = experiment: Antimetastatic activity against uPAR-overexpressing HEK293T cells assessed as suppression of invasive property incubated for 24 hrs by Crystal violet staining based - Transwell assay; assay type: functional, cell-based; conditions: Homo sapiens, dose 0-100 µM
CT26 [13] = experiment: In vivo antimetastatic activity against mouse CT26-muPAR-mCherry cells intravenously homografted in Balb/c mouse lung metastatic model assessed as suppression of mCherry fluorescence in lung at 30 mg/kg, po every two days for 15 days relative to control; assay type: functional; conditions: time 15 day
CT26 [14] = experiment: In vivo antimetastatic activity against mouse CT-26-muPAR-mCherry cells intravenously homografted in Balb/c mouse lung metastatic model assessed as suppression of hyperplasia-induced lung weight increase at 30 to 100 mg/kg, po every two days for 15 days; assay type: functional, organism-based; conditions: dose 30-100 mg/kg, time 15.0 day
[15] = Toxicity in Balb/c mouse homografted with mouse CT-26-muPAR-mCherry cells assessed as adverse effect at 100 mg/kg, po every two days for 15 days; assay type: organism-based; conditions: in vivo, 360 h, time 15 day
MCF7 [16] = experiment: Antiinvasive activity against empty vector transfected human MCF7 cells assessed as suppression of invasive property at upto 100 uM incubated for 24 hrs by Crystal violet staining based - Transwell assay; assay type: functional, cell-based
CT26 [17] = experiment: In vivo antitumor activity against mouse CT26 cells subcutaneously homografted in Balb/c mouse model assessed as suppression of tumor growth at 100 mg/kg, po every two days for 14 days; assay type: functional, organism-based; conditions: time 14.0 day
[18] = target: Urokinase plasminogen activator surface receptor (Homo sapiens, UniProt Q03405, H47C/N259C); experiment: Binding affinity to uPAR H47C/N259C (unknown origin) mutant assessed as equilibrium dissociation constant by surface plasmon resonance (SPR) analysis relative to control
Urokinase plasminogen activator surface receptor, sequence (Q03405 23-305 H69C/N281C limits assumed): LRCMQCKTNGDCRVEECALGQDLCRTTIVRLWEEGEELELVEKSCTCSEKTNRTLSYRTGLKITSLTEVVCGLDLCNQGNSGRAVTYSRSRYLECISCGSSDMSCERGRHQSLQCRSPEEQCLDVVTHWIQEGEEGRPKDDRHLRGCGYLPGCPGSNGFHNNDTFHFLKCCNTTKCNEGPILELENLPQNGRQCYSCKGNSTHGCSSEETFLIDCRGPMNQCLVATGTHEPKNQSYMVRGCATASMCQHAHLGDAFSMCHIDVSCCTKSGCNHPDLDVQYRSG

MDA-MB-231 = experiment: Antiinvasive activity against human MDA-MB-231 cells expressing moderate uPAR assessed as inhibition of invasive property at upto 100 uM incubated for 24 hrs by Crystal violet staining based - Transwell assay; assay type: functional, cell-based
PC-3 [19] = experiment: Antiinvasive activity against human PC-3 cells expressing high uPAR assessed as inhibition of invasive property without matrigel at upto 100 uM incubated for 24 hrs by crystal violet staining based - Transwell assay; assay type: functional, cell-based
CT26 [20] = experiment: In vivo antimetastatic activity against mouse CT-26-muPAR-mCherry cells intravenously homografted in Balb/c mouse lung metastatic model assessed as suppression of hyperplastic nodules on the pleural surface in lung at 30 to 100 mg/kg, po every two days for 15 days; assay type: functional, organism-based; conditions: dose 30-100 mg/kg, time 15.0 day
PC-3 [21] = experiment: Inhibition of cell migration in human PC-3 cells assessed as wound healing measured upto 100 uM; assay type: cell-based
CT26 [22] = experiment: In vivo antimetastatic activity against mouse CT26-muPAR-mCherry cells intravenously homografted in Balb/c mouse lung metastatic model assessed as suppression of mCherry fluorescence in lung at 300 mg/kg, po every two days for 15 days relative to control; assay type: functional; conditions: time 15 day
CT26 [23] = experiment: In vivo antitumor activity against mouse CT26 cells subcutaneously homografted in Balb/c mouse model assessed as suppression of tumor growth at 300 mg/kg, po every two days for 14 days; assay type: functional, organism-based; conditions: time 14.0 day
[24] = Toxicity in Balb/c mouse homografted with mouse CT-26-muPAR-mCherry cells assessed as adverse effect at 300 mg/kg, po every two days for 15 days; assay type: organism-based; conditions: in vivo, 360 h, time 15 day
CT26 [25] = experiment: In vivo antimetastatic activity against mouse CT-26-muPAR-mCherry cells intravenously homografted in Balb/c mouse lung metastatic model assessed as suppression of metastases of cancer cells around vessels at 300 mg/kg, po every two days for 15 days by histopathological analysis; assay type: functional, organism-based; conditions: time 15.0 day
CT26 [26] = experiment: In vivo antimetastatic activity against mouse CT-26-muPAR-mCherry cells intravenously homografted in Balb/c mouse lung metastatic model assessed as suppression of hyperplastic nodules on the pleural surface in lung at 100 to 300 mg/kg, po every two days for 15 days; assay type: functional, organism-based; conditions: dose 100-300 mg/kg, time 15.0 day
[27] = Toxicity in Balb/c mouse homografted with mouse CT26 cells assessed as body weight at 300 mg/kg, po every two days for 14 days; assay type: organism-based; conditions: in vivo, 336 h, time 14 day
CT26 [28] = experiment: In vivo antimetastatic activity against mouse CT-26-muPAR-mCherry cells intravenously homografted in Balb/c mouse lung metastatic model assessed as suppression of hyperplasia-induced lung weight increase at 30 to 100 to 300 mg/kg, po every two days for 15 days; assay type: functional, organism-based; conditions: dose 100-300 mg/kg, time 15.0 day
CT26 [29] = experiment: In vivo antitumor activity against CT26 cells subcutaneously homografted in Balb/c mouse model assessed as tumor weight at 300 mg/kg, po every two days for 14 days relative to control; assay type: functional; conditions: CT26, 336 h, time 14 day

Urokinase plasminogen activator surface receptor (Homo sapiens), Q03405 [UNDEFINED MUTATION], sequence (Q03405 whole entry, looked up, stated change not applied): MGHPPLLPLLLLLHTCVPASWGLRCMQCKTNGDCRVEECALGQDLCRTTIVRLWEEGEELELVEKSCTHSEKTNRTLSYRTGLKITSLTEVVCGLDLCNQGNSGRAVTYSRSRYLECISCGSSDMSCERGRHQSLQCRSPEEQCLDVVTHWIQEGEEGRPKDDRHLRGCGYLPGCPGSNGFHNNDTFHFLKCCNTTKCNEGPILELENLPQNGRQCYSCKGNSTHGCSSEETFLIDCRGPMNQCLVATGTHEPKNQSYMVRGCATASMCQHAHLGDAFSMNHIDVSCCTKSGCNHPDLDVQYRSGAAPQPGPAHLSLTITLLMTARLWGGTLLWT

CC(=O)OCC(CCn1cnc2cnc(N)nc21)COC(C)=O
RU [1]: -4

CC(C)(C)c1ccc(C(=O)CCCN2CCC(OC(c3ccccc3)c3ccccc3)CC2)cc1
RU [1]: 1.5

CC(C)=CCOc1c2occc2cc2ccc(=O)oc12
RU [1]: 1

CC(CCc1ccc(O)cc1)NCCc1ccc(O)c(O)c1 (centres undefined)
RU [1]: 5.5

CCCCC1C(=O)N(c2ccccc2)N(c2ccccc2)C1=O
RU [1]: 2.7

CCCCCOC(=O)Nc1nc(=O)n([C@@H]2O[C@@H](O)[C@@H](O)[C@H]2O)cc1F
RU [1]: 1

CCN(CC)CCCC(C)Nc1c2ccc(Cl)cc2nc2ccc(OC)cc12 (centres undefined)
RU [1]: 20

CCN(CC)CCOC(=O)c1ccc(N)cc1
RU [1]: 17

CCN[C@H]1CN(CCCOC)S(=O)(=O)c2sc(S(N)(=O)=O)cc21
RU [1]: -1

CCOC(=O)Nc1ccc(NCc2ccc(F)cc2)nc1N
RU [1]: 15

CCc1c(C)[nH]c2c1C(=O)C(CN1CCOCC1)CC2 (centres undefined)
RU [1]: 8

CCc1c(C)[nH]c2c1C(=O)CC(CN1CCOCC1)C2 (centres undefined)
RU [1]: 11

CN(C)CCC=C1c2ccccc2CCc2ccccc21
RU [1]: 11

CN(C)CCCC1(c2ccc(F)cc2)OCc2cc(C#N)ccc21 (centres undefined)
RU [1]: 7

CN/C(=N\CCSCc1nc[nH]c1C)NC#N
RU [1]: -3

CNC(=C[N+](=O)[O-])NCCSCc1ccc(CN(C)C)o1
RU [1]: 0

CNCC(O)c1ccc(O)cc1 (centres undefined)
RU [1]: 0.5

COC(=O)[C@@H](N)CCCNC(=N)N[N+](=O)[O-]
RU [1]: 0

COc1ccc(CN(CCN(C)C)c2ccccc2)cc1
RU [1]: 1.7

Cc1ccc(S(=O)(=O)N[C@@H](CCCCN)C(=O)CCl)cc1
RU [1]: 0

NC(CO)C(=O)NNCc1ccc(O)c(O)c1O (centres undefined)
RU [1]: 0

O=C(/C=C/c1ccc(O)c(O)c1)OCCc1ccccc1
RU [1]: 8

O=C(O)c1cccnc1Nc1cccc(C(F)(F)F)c1
RU [1]: 7

O=C1CC2(CCCC2)CC(=O)N1CCCCN1CCN(c2ncccn2)CC1
RU [1]: 1

COc1ccc([C@@H]2Sc3ccccc3N(CCN(C)C)C(=O)[C@@H]2OC(C)=O)cc1 [DILTIAZEM]
Activity (Caco-2): inactive
inhibition in vivo at 100 mg/kg (CT26 [2]): 73.2%
Activity (PC-3 [3]): Non-Toxic
Activity (CT26 [4]): Active
RU [1]: 12
Activity (PC-3 [5]): Dose-Dependent Effect
Activity (HUVEC): Active
Activity (CT26 [6]): 76%
Activity [7]: Non-Toxic
IC50 [8]: 58.6 µM
Activity (MCF7 [9]): Active
Activity (CT26 [10]): Dose-Dependent Effect
Activity [11]: Toxic
Activity (CT26 [12]): Dose-Dependent Effect
Activity (HEK-293T): Dose-Dependent Effect
Activity (CT26 [13]): 61%
Activity (CT26 [14]): Active
Activity [15]: Non-Toxic
Activity (MCF7 [16]): Active
Activity (CT26 [17]): Active
Kd [18]: 39.2 µM
Activity (MDA-MB-231): Active
Activity (PC-3 [19]): Active
Activity (CT26 [20]): Active
Activity (PC-3 [21]): Active

COc1ccc(Cl)cc1C(=O)NCCc1ccc(S(=O)(=O)NC(=O)NC2CCCCC2)cc1 [GLYBURIDE]
Activity (CT26 [22]): 83%
Activity (Caco-2): inactive
Activity (CT26 [23]): Active
Activity (PC-3 [3]): Non-Toxic
RU [1]: 33
Activity (PC-3 [5]): Dose-Dependent Effect
Activity (HUVEC): Active
Activity (CT26 [6]): 70%
IC50 [8]: 69.5 µM
Activity (MCF7 [9]): Active
Activity (CT26 [10]): Dose-Dependent Effect
Activity [24]: Non-Toxic
Activity (CT26 [25]): Active
Activity (CT26 [12]): Dose-Dependent Effect
Activity (HEK-293T): Dose-Dependent Effect
Activity (CT26 [26]): Active
Activity [27]: Non-Toxic
Activity (MCF7 [16]): Active
Activity (CT26 [28]): Active
Kd [18]: 40.4 µM
Activity (MDA-MB-231): Active
inhibition in vivo at 300 mg/kg (CT26 [29]): 62.8%
Activity (PC-3 [19]): Active
Activity (PC-3 [21]): Active

O=C(CCCN1CCC(O)(c2ccc(Cl)cc2)CC1)c1ccc(F)cc1 [HALOPERIDOL]
RU [1]: 10
Kd [18]: 41.2 µM

CNCCCC12CCC(c3ccccc31)c1ccccc12 [MAPROTILINE]
RU [1]: 13
Kd [18]: 79.7 µM

O=C(O)CCc1nc(-c2ccccc2)c(-c2ccccc2)o1 [OXAPROZIN]
RU [1]: 20
Kd [18]: 114 µM
